Results taken from article PMC12627933, “A First-In-Human Study of the SUMOylation Inhibitor Subasumstat in Patients with Advanced/Metastatic Solid Tumors or Relapsed/Refractory Hematologic Malignancies” (Cancer Research Communications, 2025).

Test: Safety: treatment-emergent adverse events (NCI CTCAE v5.0; CRS per ASTCT), phase I/II study NCT03648372
Type: in vivo
Procedure: This study comprised two parts: a phase I dose escalation and a phase II dose expansion (Fig. 1). In the dose-escalation phase, patients were enrolled to receive subasumstat intravenously as a 1-hour (±10 minutes) infusion on days 1, 4, 8, and 11 of a 21-day cycle (biweekly schedule). […] Dose escalation was based on cohort with an adaptive design using Bayesian logistic regression modeling with overdose control. The starting dose of subasumstat was based on Good Laboratory Practice animal toxicity studies and supported by the estimation of a minimum anticipated biologically effective level. A detailed description of dose-limiting toxicities (DLT) is presented in the Supplementary Methods.
The phase II dose-expansion portion enrolled patients to receive the recommended phase II dose (RP2D) determined in phase I, with each cohort assessed separately using an adaptive two-stage design for a single proportion (see Supplementary Methods). For stage 1, each cohort was analyzed when a prespecified number of patients were enrolled and had the potential to have at least one posttreatment scan [i.e., after the first disease assessment, 2 months from cycle 1 day 1 (C1D1)]. If the prespecified minimal response rate was not achieved in the first stage for a given cohort, that cohort would be closed to enrollment. […] The final analysis of the primary endpoints for each cohort would take place when all ongoing patients had the opportunity to complete the 6-month disease assessment. Across both phases, patients received subasumstat for up to 1 year or until confirmed disease progression, unacceptable toxicity, if any withdrawal criterion from the study was met, or if discontinuation of subasumstat occurred.
The occurrence of DLTs was assessed during cycle 1 (DLTs are described in the Supplementary Methods). Treatment-emergent adverse events (TEAE) were graded according to NCI Common Terminology Criteria for Adverse Events version 5.0, except for cytokine release syndrome (CRS), which was graded according to the American Society for Transplantation and Cellular Therapy Consensus Grading for CRS ([20]).
It was anticipated that approximately 70 DLT-evaluable patients would be enrolled for dose escalation. The safety analysis set included all patients who received at least one dose, even if incomplete, of subasumstat. […] The overall response rate (ORR) was defined as the proportion of patients who achieved complete response and partial response (PR) during the study. The disease control rate (DCR) was defined as the proportion of patients who achieved […] as per RECIST v1.1 for solid tumors or Lugano classification for lymphomas. […] Progression-free survival was summarized descriptively using the Kaplan–Meier method.

Structure (SMILES): Cc1sc(C(=O)c2cncnc2N[C@@H]2C[C@H](COS(N)(=O)=O)[C@@H](O)C2)cc1[C@@H]1NCCc2ccc(Cl)cc21 [subasumstat]
- TEAE: Dyspnea (Phase I (n = 84)): 22 (26.2) n (%)
- TEAE: Fatigue (Phase I (n = 84)): 42 (50.0) n (%)
- TEAE: Headache (Phase I (n = 84)): 30 (35.7) n (%)
- TEAE: Hypophosphatemia (Phase I (n = 84)): 11 (13.1) n (%)
- TEAE: Insomnia (Phase I (n = 84)): 11 (13.1) n (%)
- TEAE: Nausea (Phase I (n = 84)): 41 (48.8) n (%)
- TEAE: Peripheral edema (Phase I (n = 84)): 15 (17.9) n (%)
- TEAE: Pleural effusion (Phase I (n = 84)): 9 (10.7) n (%)
- TEAE: Pyrexia (Phase I (n = 84)): 28 (33.3) n (%)
- TEAE: Stomatitis (Phase I (n = 84)): 8 (9.5) n (%)
- TEAE: Vomiting (Phase I (n = 84)): 27 (32.1) n (%)
- TEAEs (Phase I (n = 84)): 81 (96.4) n (%)
- TEAEs leading to discontinuation (Phase I (n = 84)): 8 (9.5) n (%)
- TEAEs leading to discontinuation related to subasumstat (Phase I (n = 84)): 3 (3.6) n (%)
- TEAEs related to subasumstat (Phase I (n = 84)): 65 (77.4) n (%)
- AESI (adverse event of special interest) (Phase II (n = 25)): 3 (12.0) n (%)
- AESI related to subasumstat (Phase II (n = 25)): 3 (12.0) n (%)
- AESI: CRS (Phase II (n = 25)): 3 (12.0) n (%)
- Grade ≥3 TEAE: Abdominal pain (Phase II (n = 25)): 2 (8.0) n (%)
- Grade ≥3 TEAE: Acute kidney injury (Phase II (n = 25)): 2 (8.0) n (%)
- Grade ≥3 TEAE: Anemia (Phase II (n = 25)): 5 (20.0) n (%)
- Grade ≥3 TEAE: Aspartate aminotransferase increased (Phase II (n = 25)): 0 n (%)
- Grade ≥3 TEAE: Blood bilirubin increased (Phase II (n = 25)): 0 n (%)
- Grade ≥3 TEAE: Dyspnea (Phase II (n = 25)): 0 n (%)
- Grade ≥3 TEAE: Fatigue (Phase II (n = 25)): 0 n (%)
- Grade ≥3 TEAE: Hyperbilirubinemia (Phase II (n = 25)): 2 (8.0) n (%)
- Grade ≥3 TEAE: Hypertension (Phase II (n = 25)): 1 (4.0) n (%)
- Grade ≥3 TEAE: Hypokalemia (Phase II (n = 25)): 0 n (%)
- Grade ≥3 TEAE: Hypomagnesemia (Phase II (n = 25)): 0 n (%)
- Grade ≥3 TEAE: Hypophosphatemia (Phase II (n = 25)): 0 n (%)
- Grade ≥3 TEAE: Lymphocyte count decreased (Phase II (n = 25)): 0 n (%)
- Grade ≥3 TEAE: Lymphopenia (Phase II (n = 25)): 1 (4.0) n (%)
- Grade ≥3 TEAE: Muscular weakness (Phase II (n = 25)): 2 (8.0) n (%)
- Grade ≥3 TEAE: Nausea (Phase II (n = 25)): 0 n (%)
- Grade ≥3 TEAE: Neutropenia (Phase II (n = 25)): 4 (16.0) n (%)
- Grade ≥3 TEAE: Platelet count increased (Phase II (n = 25)): 2 (8.0) n (%)
- Grade ≥3 TEAE: Pleural effusion (Phase II (n = 25)): 0 n (%)
- Grade ≥3 TEAE: Pneumonia (Phase II (n = 25)): 1 (4.0) n (%)
- Grade ≥3 TEAE: Pneumonitis (Phase II (n = 25)): 0 n (%)
- Grade ≥3 TEAE: Pyrexia (Phase II (n = 25)): 0 n (%)
- Grade ≥3 TEAE: Small intestinal obstruction (Phase II (n = 25)): 0 n (%)
- Grade ≥3 TEAE: Thrombocytopenia (Phase II (n = 25)): 1 (4.0) n (%)
- Grade ≥3 TEAE: Vomiting (Phase II (n = 25)): 0 n (%)
- Grade ≥3 TEAEs (Phase II (n = 25)): 18 (72.0) n (%)
- Grade ≥3 TEAEs related to subasumstat (Phase II (n = 25)): 11 (44.0) n (%)
- Grade ≥3 subasumstat-related TEAE: Anemia (Phase II (n = 25)): 3 (12.0) n (%)
- Grade ≥3 subasumstat-related TEAE: Aspartate aminotransferase increased (Phase II (n = 25)): 0 n (%)
- Grade ≥3 subasumstat-related TEAE: Hypokalemia (Phase II (n = 25)): 0 n (%)
- Grade ≥3 subasumstat-related TEAE: Lymphocyte count decreased (Phase II (n = 25)): 0 n (%)
- Grade ≥3 subasumstat-related TEAE: Muscular weakness (Phase II (n = 25)): 2 (8.0) n (%)
- Grade ≥3 subasumstat-related TEAE: Neutropenia (Phase II (n = 25)): 4 (16.0) n (%)
- Grade ≥3 subasumstat-related TEAE: Platelet count increased (Phase II (n = 25)): 2 (8.0) n (%)
- Grade ≥3 subasumstat-related TEAE: Pneumonitis (Phase II (n = 25)): 0 n (%)
- Grade ≥3 subasumstat-related TEAE: Thrombocytopenia (Phase II (n = 25)): 1 (4.0) n (%)
- On-study deaths (Phase II (n = 25)): 2 (8.0) n (%)
- Patients with at least one grade ≥3 TEAE (Phase II (n = 25)): 18 (72.0) n (%)
- Patients with at least one grade ≥3 subasumstat-related TEAE (Phase II (n = 25)): 11 (44.0) n (%)
- Serious adverse events (Phase II (n = 25)): 11 (44.0) n (%)
- Serious adverse events related to subasumstat (Phase II (n = 25)): 5 (20.0) n (%)
- Subasumstat-related TEAE: Anemia (Phase II (n = 25)): 4 (16.0) n (%)
- Subasumstat-related TEAE: CRS (Phase II (n = 25)): 3 (12.0) n (%)
- Subasumstat-related TEAE: Chills (Phase II (n = 25)): 6 (24.0) n (%)
- Subasumstat-related TEAE: Decreased appetite (Phase II (n = 25)): 3 (12.0) n (%)
- Subasumstat-related TEAE: Diarrhea (Phase II (n = 25)): 6 (24.0) n (%)
- Subasumstat-related TEAE: Dyspnea (Phase II (n = 25)): 2 (8.0) n (%)
- Subasumstat-related TEAE: Fatigue (Phase II (n = 25)): 7 (28.0) n (%)
- Subasumstat-related TEAE: Headache (Phase II (n = 25)): 5 (20.0) n (%)
- Subasumstat-related TEAE: Hypokalemia (Phase II (n = 25)): 0 n (%)
- Subasumstat-related TEAE: IRR (Phase II (n = 25)): 1 (4.0) n (%)
- Subasumstat-related TEAE: Myalgia (Phase II (n = 25)): 2 (8.0) n (%)
